# Assay results taken from PubChem BioAssay (NCI).
# Values joined by “and” are separate entries in the source; they are usually repeats but may differ in a detail not shown here. Equal entries are not always repeated.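 Briefly, cells in 96-well plates were exposed to five compound concentrations for 48 h, and endpoints were estimated by linear interpolation. GI50 is the concentration that inhibits growth by half. At the TGI there is no net growth.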
# Assays:
# Assay in all cases: growth of human tumour cells (NCI), 48 h
# [1] = tested on: SK-MEL-2 melanoma
# [2] = tested on: SNB-19 CNS
# [3] = tested on: NCI-H522 lung
# [4] = tested on: NCI/ADR-RES ovarian
# [5] = tested on: HT29 colon
# [6] = tested on: SNB-75 CNS
# [7] = tested on: CAKI-1 renal
# [8] = tested on: SN12C renal
# [9] = tested on: SW-620 colon
# [10] = tested on: TK-10 renal
smiles,measurement,setting,value
Nc1ncnc2c1ncn2C1OC(COP(=O)(O)O)C(O)C1O (configuration not stated),TGI,[1],> 50 µM
same,TGI,[2],> 50 µM
same,TGI,[3],> 50 µM
same,TGI,[4],> 32.2 µM
same,TGI,[5],> 50 µM
same,TGI,[6],> 50 µM
same,TGI,[7],> 50 µM
same,TGI,[8],> 50 µM
same,TGI,[9],> 50 µM
COc1cc2c(cc1OC)-c1cc3ccccc3c[n+]1CC2,TGI,[1],> 100 µM
same,TGI,[2],> 100 µM
same,TGI,[3],68.3 µM
same,TGI,[4],> 100 µM
same,TGI,[5],> 100 µM
same,TGI,[6],> 100 µM
same,TGI,[10],> 100 µM
same,TGI,[7],> 100 µM
same,TGI,[8],> 100 µM
same,TGI,[9],> 100 µM
Cc1ccccc1C(=O)c1c(O)c2c(c(O)c1Br)CCCC2,TGI,[1],31.3 µM
same,TGI,[2],54.7 µM
same,TGI,[3],23.4 µM
same,TGI,[5],66.6 µM
same,TGI,[6],34.8 µM
same,TGI,[10],31.7 µM
same,TGI,[7],35.9 µM
same,TGI,[8],33.3 µM
same,TGI,[9],34.1 µM
O=[N+]([O-])c1nc(-c2ccccn2)[nH]c1[N+](=O)[O-],TGI,[1],> 100 µM
same,TGI,[2],> 100 µM
same,TGI,[3],37.1 µM
same,TGI,[5],> 100 µM
same,TGI,[6],> 100 µM
same,TGI,[10],> 100 µM
same,TGI,[7],> 100 µM
same,TGI,[8],> 100 µM
same,TGI,[9],> 100 µM
CCOc1ccc2nc(-c3ccc(O)cc3)sc2c1,TGI,[1],> 100 µM
same,TGI,[2],> 100 µM
same,TGI,[3],89.7 µM
same,TGI,[4],> 100 µM
same,TGI,[5],> 100 µM
same,TGI,[10],> 100 µM
same,TGI,[7],> 100 µM
same,TGI,[8],> 100 µM
same,TGI,[9],> 100 µM
C/C=C/[C@H]1O[C@@](O)([C@@H](C)[C@H](O)[C@H](C)[C@H]2OC(=O)/C(OC)=C/C(C)=C/[C@@H](C)[C@@H](O)[C@@H](CC)[C@@H](O)[C@H](C)C/C(C)=C/C=C/[C@@H]2OC)C[C@H](OC2CC(O)C(O)C(C)O2)[C@@H]1C (some centres not stated),TGI,[2],15.7 µM
same,TGI,[3],1.48 µM
same,TGI,[4],17.8 µM
same,TGI,[5],8.03 µM
same,TGI,[6],46 µM
same,TGI,[10],18.9 µM
same,TGI,[7],11.9 µM
same,TGI,[8],18.1 µM
same,TGI,[9],10.4 µM
O=C(O)c1ccccc1NC(c1ccccc1)c1ccc2cccnc2c1O (configuration not stated),TGI,[1],> 100 µM
same,TGI,[2],> 100 µM
same,TGI,[3],23.3 µM
same,TGI,[4],> 49.3 µM
same,TGI,[5],> 100 µM
same,TGI,[6],> 86.7 µM
same,TGI,[10],51.1 µM
same,TGI,[7],50.1 µM
same,TGI,[8],> 51.4 µM
same,TGI,[9],46.4 µM
N/C(=N\N=C/c1ccccc1O)NO,TGI,[1],> 90.8 µM
same,TGI,[2],> 91.3 µM
same,TGI,[3],29.8 µM
same,TGI,[4],44.2 µM
same,TGI,[5],> 42 µM
same,TGI,[6],> 29.9 µM
same,TGI,[7],24 µM
same,TGI,[8],> 100 µM
same,TGI,[9],> 100 µM
O=C1OC(c2ccccc2)=N/C1=C\c1cccnc1,TGI,[1],> 100 µM
same,TGI,[2],> 100 µM
same,TGI,[3],> 100 µM
same,TGI,[4],> 100 µM
same,TGI,[5],> 100 µM
same,TGI,[6],> 100 µM
same,TGI,[10],> 100 µM
same,TGI,[9],> 100 µM
O=C(O)c1cc2ccccc2c(N=Nc2ccccc2)c1O,TGI,[2],79.6 µM
same,TGI,[3],59.6 µM
same,TGI,[4],90.4 µM
same,TGI,[5],54.8 µM
same,TGI,[6],36 µM
same,TGI,[10],> 100 µM
same,TGI,[7],84.2 µM
same,TGI,[8],74.1 µM
same,TGI,[9],> 100 µM
CC(=O)OC1C(C)OC(Oc2c(C)c3c4c(c2O)[C@@H](C)CC[C@@H]4[C@@H](C)C[C@H]3C=C(C)C)C(O)C1O (some centres not stated),GI50,[1],> 100 µM
same,TGI,[1],> 100 µM
same,GI50,[2],3.41 µM
same,TGI,[2],> 100 µM
same,GI50,[3],49.7 µM
same,TGI,[3],> 100 µM
same,GI50,[4],2.96 µM
same,TGI,[4],9.13 µM
same,GI50,[10],1.79 µM
same,TGI,[10],3.67 µM
same,GI50,[7],1.87 µM
same,TGI,[7],3.74 µM
CC[C@]1(O)C[C@H]2CN(CCc3c([nH]c4ccccc34)[C@@](C(=O)OC)(c3cc4c(cc3OC)N(C=O)[C@H]3[C@@](O)(C(=O)OC)[C@H](OC(C)=O)[C@]5(CC)C=CCN6CC[C@]43[C@@H]65)C2)C1,TGI,[2],43.1 µM and 17.7 µM
same,GI50,[3],0.00705 µM
same,TGI,[3],0.226 µM and 0.143 µM
same,GI50,[4],1.18 µM and 0.536 µM and 1.95 µM
same,TGI,[4],4.87 µM and 12.5 µM and 8.04 µM
same,TGI,[5],27.2 µM
same,GI50,[7],1.95 µM
same,TGI,[7],9.22 µM and 10.8 µM and 77.2 µM
same,TGI,[9],141 µM and 18 µM
CCS(=O)(=O)N1CCC(C(C)n2c(C)c(C(=O)NCc3c(OC)cc(C)[nH]c3=O)c3ccccc32)CC1 (configuration not stated),GI50,[1],> 100 µM
same,TGI,[1],> 100 µM
same,GI50,[3],> 100 µM
same,TGI,[3],> 100 µM
same,GI50,[4],> 100 µM
same,TGI,[4],> 100 µM
same,GI50,[5],> 100 µM
same,TGI,[5],> 100 µM
same,GI50,[6],36.3 µM
same,TGI,[6],> 100 µM
same,GI50,[10],> 100 µM
same,TGI,[10],> 100 µM
same,GI50,[7],> 100 µM
same,TGI,[7],> 100 µM
same,GI50,[9],> 100 µM
same,TGI,[9],> 100 µM
COC1=C2CC(C)CC(OC)C(O)C(C)/C=C(\C)C(OC(N)=O)C(OC)/C=C\C=C(/C)C(=O)NC(=C(C=NC(C)(C)C)C1=O)C2=O (configuration not stated),TGI,[1],12.3 µM
same,TGI,[2],26.9 µM
same,TGI,[3],1.63 µM
same,TGI,[4],44.4 µM
same,TGI,[5],21 µM
same,TGI,[6],6.15 µM
same,TGI,[7],23.7 µM
same,TGI,[8],21 µM
same,TGI,[9],20.9 µM
NC(=O)c1nnc2ccc(F)cc2c1N,TGI,[1],> 100 µM
same,TGI,[2],> 100 µM
same,TGI,[3],> 100 µM
same,TGI,[4],> 100 µM
same,TGI,[5],> 100 µM
same,TGI,[6],> 100 µM
same,TGI,[10],> 100 µM
same,TGI,[7],> 100 µM
same,TGI,[8],> 100 µM
same,TGI,[9],> 100 µM
C/C(CC/C(C)=N/O)=N\O,TGI,[1],> 100 µM
same,TGI,[2],> 100 µM
same,TGI,[3],> 100 µM
same,TGI,[4],> 100 µM
same,TGI,[5],> 100 µM
same,TGI,[6],> 100 µM
same,TGI,[10],> 100 µM
same,TGI,[7],> 100 µM
same,TGI,[8],> 100 µM
same,TGI,[9],> 100 µM
